Measurements: the kinase profiling compilation of Christmann-Franck et al. (2016)

Legend:
Assay in all cases: KINOMEscan competition binding
Settings in all cases: compound 10.0 µM
NEK1 (human) = NEK1 (human) (UniProt Q96PY6)
CHEK1 (human) = CHEK1 (human) (UniProt O14757)
PAK1 (human) = PAK1 (human) (UniProt Q13153)
CASK (human) = CASK (human) (UniProt O14936)
CDK19 (human) = CDK19 (human) (UniProt Q9BWU1)
MAP3K14 (human) = MAP3K14 (human) (UniProt Q99558)
MKNK2 (human) = MKNK2 (human) (UniProt Q9HBH9)
MATK (human) = MATK (human) (UniProt P42679)
CDK14 (human) = CDK14 (human) (UniProt O94921)
PDGFRB (human) = PDGFRB (human) (UniProt P09619)
ROCK2 (human) = ROCK2 (human) (UniProt O75116)
NUAK2 (human) = NUAK2 (human) (UniProt Q9H093)
ACVR1B (human) = ACVR1B (human) (UniProt P36896)
ERN1 (human) = ERN1 (human) (UniProt O75460)
MAPK8 (human) = MAPK8 (human) (UniProt P45983)
GAK (human) = GAK (human) (UniProt O14976)
SYK (human) = SYK (human) (UniProt P43405)
ALK (human) = ALK (human) (UniProt Q9UM73)
CSNK1G2 (human) = CSNK1G2 (human) (UniProt P78368)
NEK6 (human) = NEK6 (human) (UniProt Q9HC98)
WNK1 (human) = WNK1 (human) (UniProt Q9H4A3)
CDK2 (human) = CDK2 (human) (UniProt P24941)
NLK (human) = NLK (human) (UniProt Q9UBE8)
EPHA2 (human) = EPHA2 (human) (UniProt P29317)
PLK1 (human) = PLK1 (human) (UniProt P53350)
STK11 (human) = STK11 (human) (UniProt Q15831)
TSSK1B (human) = TSSK1B (human) (UniProt Q9BXA7)
IKBKB (human) = IKBKB (human) (UniProt O14920)
CAMK4 (human) = CAMK4 (human) (UniProt Q16566)
FGFR3 (human) = FGFR3 (human) (UniProt P22607)
SRPK3 (human) = SRPK3 (human) (UniProt Q9UPE1)
ANKK1 (human) = ANKK1 (human) (UniProt Q8NFD2)
RPS6KA3 KD1 (human) = RPS6KA3 KD1 (human) (UniProt P51812)
SIK1 (human) = SIK1 (human) (UniProt P57059)
KDR (human) = KDR (human) (UniProt P35968)
PAK2 (human) = PAK2 (human) (UniProt Q13177)
BRAF (human) = BRAF (human) (UniProt P15056)
MKNK1 (human) = MKNK1 (human) (UniProt Q9BUB5)
ERBB4 (human) = ERBB4 (human) (UniProt Q15303)
CSNK1A1 (human) = CSNK1A1 (human) (UniProt P48729)
MARK3 (human) = MARK3 (human) (UniProt P27448)

CHEK1 (human), sequence (O14757 whole entry, looked up): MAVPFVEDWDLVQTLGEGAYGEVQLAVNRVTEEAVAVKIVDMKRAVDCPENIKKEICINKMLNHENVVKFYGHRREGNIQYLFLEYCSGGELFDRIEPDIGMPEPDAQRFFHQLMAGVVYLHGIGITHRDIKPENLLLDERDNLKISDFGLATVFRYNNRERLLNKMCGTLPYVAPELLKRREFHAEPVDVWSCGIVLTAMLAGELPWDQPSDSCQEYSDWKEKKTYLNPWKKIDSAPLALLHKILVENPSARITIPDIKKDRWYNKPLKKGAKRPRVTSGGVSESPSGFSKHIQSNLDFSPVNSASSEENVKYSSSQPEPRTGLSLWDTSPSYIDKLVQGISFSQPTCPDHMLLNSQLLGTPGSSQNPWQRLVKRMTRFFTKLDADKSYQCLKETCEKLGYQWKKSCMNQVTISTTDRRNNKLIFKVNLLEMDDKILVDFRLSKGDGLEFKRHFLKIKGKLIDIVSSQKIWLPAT
KDR (human), sequence (P35968 whole entry, looked up): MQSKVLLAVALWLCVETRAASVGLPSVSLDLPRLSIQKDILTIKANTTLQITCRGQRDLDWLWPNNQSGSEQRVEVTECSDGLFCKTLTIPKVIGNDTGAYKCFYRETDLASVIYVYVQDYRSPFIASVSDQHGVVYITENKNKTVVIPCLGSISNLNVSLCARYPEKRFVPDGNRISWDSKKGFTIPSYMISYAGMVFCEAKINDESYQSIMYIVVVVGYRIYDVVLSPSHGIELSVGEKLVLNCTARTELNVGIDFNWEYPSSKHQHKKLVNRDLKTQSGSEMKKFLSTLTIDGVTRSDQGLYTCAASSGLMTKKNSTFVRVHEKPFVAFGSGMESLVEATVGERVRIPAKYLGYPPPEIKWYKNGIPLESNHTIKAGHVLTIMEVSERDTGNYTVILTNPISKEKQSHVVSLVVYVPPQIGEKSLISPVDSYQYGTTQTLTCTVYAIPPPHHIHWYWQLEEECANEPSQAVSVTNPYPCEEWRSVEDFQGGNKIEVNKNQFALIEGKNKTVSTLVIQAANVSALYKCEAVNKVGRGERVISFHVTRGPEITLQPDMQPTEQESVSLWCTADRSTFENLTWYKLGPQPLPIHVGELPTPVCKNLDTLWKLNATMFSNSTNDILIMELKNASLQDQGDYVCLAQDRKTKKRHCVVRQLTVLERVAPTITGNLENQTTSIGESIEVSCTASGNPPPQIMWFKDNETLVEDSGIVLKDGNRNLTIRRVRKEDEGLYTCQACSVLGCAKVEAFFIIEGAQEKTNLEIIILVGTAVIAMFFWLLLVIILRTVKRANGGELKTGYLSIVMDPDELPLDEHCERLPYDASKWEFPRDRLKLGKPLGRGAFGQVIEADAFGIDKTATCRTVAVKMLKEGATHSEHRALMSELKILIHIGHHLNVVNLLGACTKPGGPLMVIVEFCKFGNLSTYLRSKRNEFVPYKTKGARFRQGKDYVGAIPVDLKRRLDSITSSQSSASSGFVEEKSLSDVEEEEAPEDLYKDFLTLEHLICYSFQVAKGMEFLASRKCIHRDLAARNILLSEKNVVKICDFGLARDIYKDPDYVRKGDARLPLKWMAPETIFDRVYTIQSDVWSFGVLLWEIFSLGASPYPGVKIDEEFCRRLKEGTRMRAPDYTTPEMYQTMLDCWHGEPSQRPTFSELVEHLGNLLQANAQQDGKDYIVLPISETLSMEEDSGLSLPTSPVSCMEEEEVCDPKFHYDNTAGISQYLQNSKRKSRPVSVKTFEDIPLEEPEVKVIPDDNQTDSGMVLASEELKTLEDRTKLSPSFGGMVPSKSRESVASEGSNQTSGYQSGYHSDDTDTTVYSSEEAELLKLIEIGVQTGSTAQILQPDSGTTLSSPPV
BRAF (human), sequence (P15056 whole entry, looked up): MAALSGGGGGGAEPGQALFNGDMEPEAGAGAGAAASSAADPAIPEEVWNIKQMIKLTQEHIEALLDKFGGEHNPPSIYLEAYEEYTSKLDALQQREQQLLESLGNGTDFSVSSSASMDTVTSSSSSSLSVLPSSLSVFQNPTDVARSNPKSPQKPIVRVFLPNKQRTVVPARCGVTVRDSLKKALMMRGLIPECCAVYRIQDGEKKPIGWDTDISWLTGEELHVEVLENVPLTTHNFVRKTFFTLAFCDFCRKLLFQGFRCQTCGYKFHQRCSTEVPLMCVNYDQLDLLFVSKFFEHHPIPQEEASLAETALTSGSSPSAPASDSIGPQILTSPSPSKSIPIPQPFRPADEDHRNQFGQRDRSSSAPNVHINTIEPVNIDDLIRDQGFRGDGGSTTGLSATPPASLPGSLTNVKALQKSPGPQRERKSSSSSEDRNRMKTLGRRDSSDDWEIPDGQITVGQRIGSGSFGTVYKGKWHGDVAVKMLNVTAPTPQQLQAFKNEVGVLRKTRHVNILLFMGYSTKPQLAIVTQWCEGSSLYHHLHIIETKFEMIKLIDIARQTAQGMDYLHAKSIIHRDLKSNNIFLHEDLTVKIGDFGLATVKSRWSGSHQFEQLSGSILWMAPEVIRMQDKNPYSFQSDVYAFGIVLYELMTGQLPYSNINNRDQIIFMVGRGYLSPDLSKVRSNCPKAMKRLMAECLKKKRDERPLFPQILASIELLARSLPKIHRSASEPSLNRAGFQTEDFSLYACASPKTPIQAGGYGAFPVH
MKNK2 (human), sequence (Q9HBH9 whole entry, looked up): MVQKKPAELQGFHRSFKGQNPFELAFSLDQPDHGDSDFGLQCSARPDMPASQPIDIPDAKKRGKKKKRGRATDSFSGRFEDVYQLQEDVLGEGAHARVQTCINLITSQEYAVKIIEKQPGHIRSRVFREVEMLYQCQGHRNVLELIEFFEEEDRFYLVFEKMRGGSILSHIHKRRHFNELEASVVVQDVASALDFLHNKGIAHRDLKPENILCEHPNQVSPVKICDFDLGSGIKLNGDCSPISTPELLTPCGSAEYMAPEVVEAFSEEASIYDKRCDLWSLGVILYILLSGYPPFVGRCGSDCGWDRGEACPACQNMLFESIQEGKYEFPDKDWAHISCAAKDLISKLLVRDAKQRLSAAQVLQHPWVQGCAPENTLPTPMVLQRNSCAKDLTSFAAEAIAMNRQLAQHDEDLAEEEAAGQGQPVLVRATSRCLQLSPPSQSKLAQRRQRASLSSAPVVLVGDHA
FGFR3 (human), sequence (P22607 whole entry, looked up): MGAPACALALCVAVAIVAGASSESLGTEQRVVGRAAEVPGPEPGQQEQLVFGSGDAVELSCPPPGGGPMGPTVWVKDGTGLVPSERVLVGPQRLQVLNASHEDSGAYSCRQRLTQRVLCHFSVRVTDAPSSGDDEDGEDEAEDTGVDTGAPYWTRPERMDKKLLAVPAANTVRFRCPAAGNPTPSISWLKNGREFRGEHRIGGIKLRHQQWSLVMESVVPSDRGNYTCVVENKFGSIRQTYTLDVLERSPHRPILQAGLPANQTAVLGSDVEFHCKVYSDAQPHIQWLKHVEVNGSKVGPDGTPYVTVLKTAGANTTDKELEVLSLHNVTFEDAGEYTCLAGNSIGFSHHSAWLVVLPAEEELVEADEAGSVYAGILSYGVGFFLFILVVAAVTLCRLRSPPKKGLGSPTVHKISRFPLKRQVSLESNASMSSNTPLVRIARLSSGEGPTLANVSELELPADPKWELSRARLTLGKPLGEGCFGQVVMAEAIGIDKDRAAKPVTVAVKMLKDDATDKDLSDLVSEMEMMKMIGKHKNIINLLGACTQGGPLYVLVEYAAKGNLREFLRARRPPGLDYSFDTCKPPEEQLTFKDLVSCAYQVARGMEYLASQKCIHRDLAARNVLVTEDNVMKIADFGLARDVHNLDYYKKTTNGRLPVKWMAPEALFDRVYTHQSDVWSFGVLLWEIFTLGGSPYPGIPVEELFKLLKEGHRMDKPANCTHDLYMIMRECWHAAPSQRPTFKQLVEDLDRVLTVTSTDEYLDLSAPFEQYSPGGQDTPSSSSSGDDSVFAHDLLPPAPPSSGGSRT
MATK (human), sequence (P42679 whole entry, looked up): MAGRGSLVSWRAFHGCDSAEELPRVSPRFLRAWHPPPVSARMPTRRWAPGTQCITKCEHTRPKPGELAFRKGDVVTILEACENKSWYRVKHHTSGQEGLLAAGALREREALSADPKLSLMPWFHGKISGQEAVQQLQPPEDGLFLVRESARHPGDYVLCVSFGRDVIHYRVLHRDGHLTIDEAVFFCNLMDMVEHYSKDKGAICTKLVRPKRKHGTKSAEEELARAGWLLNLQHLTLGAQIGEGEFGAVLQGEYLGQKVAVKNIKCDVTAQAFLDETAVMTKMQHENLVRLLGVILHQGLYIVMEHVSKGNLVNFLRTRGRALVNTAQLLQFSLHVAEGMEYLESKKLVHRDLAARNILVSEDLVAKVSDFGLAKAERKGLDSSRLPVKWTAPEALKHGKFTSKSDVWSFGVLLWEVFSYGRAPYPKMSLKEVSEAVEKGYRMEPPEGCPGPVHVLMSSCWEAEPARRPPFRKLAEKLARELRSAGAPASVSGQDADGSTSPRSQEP
PLK1 (human), sequence (P53350 whole entry, looked up): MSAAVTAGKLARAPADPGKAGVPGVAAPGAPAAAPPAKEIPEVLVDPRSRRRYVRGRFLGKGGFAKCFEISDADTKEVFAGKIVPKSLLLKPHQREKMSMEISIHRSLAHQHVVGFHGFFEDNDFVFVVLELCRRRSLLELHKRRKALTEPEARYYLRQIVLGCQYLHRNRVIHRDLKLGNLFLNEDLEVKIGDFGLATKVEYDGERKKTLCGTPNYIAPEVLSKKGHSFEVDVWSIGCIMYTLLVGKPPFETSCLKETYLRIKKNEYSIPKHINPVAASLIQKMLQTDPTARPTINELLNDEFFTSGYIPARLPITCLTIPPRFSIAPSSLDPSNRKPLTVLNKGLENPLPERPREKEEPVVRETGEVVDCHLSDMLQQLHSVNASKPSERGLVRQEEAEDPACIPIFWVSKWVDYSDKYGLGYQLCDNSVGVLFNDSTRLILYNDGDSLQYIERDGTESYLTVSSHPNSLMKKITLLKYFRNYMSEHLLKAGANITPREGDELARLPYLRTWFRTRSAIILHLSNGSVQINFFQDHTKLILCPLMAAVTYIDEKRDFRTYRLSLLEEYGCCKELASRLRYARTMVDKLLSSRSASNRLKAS

kinase still bound, per cent of control (NEK1 (human)): 85%
kinase still bound, per cent of control (CHEK1 (human)): 100%
kinase still bound, per cent of control (PAK1 (human)): 86%
kinase still bound, per cent of control (CASK (human)): 20%
kinase still bound, per cent of control (CDK19 (human)): 0.35%
kinase still bound, per cent of control (MAP3K14 (human)): 97%
kinase still bound, per cent of control (MKNK2 (human)): 0.05%
kinase still bound, per cent of control (MATK (human)): 100%
kinase still bound, per cent of control (CDK14 (human)): 23%
kinase still bound, per cent of control (PDGFRB (human)): 0%
kinase still bound, per cent of control (ROCK2 (human)): 63%
kinase still bound, per cent of control (NUAK2 (human)): 73%
kinase still bound, per cent of control (ACVR1B (human)): 100%
kinase still bound, per cent of control (ERN1 (human)): 100%
kinase still bound, per cent of control (MAPK8 (human)): 85%
kinase still bound, per cent of control (GAK (human)): 90%
kinase still bound, per cent of control (SYK (human)): 56%
kinase still bound, per cent of control (ALK (human)): 57%
kinase still bound, per cent of control (CSNK1G2 (human)): 94%
kinase still bound, per cent of control (NEK6 (human)): 100%
kinase still bound, per cent of control (WNK1 (human)): 100%
kinase still bound, per cent of control (CDK2 (human)): 64%
kinase still bound, per cent of control (NLK (human)): 44%
kinase still bound, per cent of control (EPHA2 (human)): 37%
kinase still bound, per cent of control (PLK1 (human)): 100%
kinase still bound, per cent of control (STK11 (human)): 97%
kinase still bound, per cent of control (TSSK1B (human)): 86%
kinase still bound, per cent of control (IKBKB (human)): 91%
kinase still bound, per cent of control (CAMK4 (human)): 100%
kinase still bound, per cent of control (FGFR3 (human)): 80%
kinase still bound, per cent of control (SRPK3 (human)): 100%
kinase still bound, per cent of control (ANKK1 (human)): 89%
kinase still bound, per cent of control (RPS6KA3 KD1 (human)): 100%
kinase still bound, per cent of control (SIK1 (human)): 100%
kinase still bound, per cent of control (KDR (human)): 0%
kinase still bound, per cent of control (PAK2 (human)): 97%
kinase still bound, per cent of control (BRAF (human)): 3.8%
kinase still bound, per cent of control (MKNK1 (human)): 5.4%
kinase still bound, per cent of control (ERBB4 (human)): 94%
kinase still bound, per cent of control (CSNK1A1 (human)): 100%
kinase still bound, per cent of control (MARK3 (human)): 75%
SMILES: O=C(Nc1ccc(Oc2ncnc3[nH]ncc23)cc1)Nc1ccc(Cl)c(C(F)(F)F)c1
